In brackets after ≈: the same amount, converted by molar mass. Entries after “also recorded” stand apart in the source; their conditions may differ.
How the values were obtained:
ColQ1-FL = ColQ1-FL (Bacillus cereus, UniProt B9J3S4); type: biochemical; conditions: 12.5–1.5 μM tested, SDS-PAGE
B. cereus AH187 = assay: B. cereus growth inhibition assay; type: cell-based; conditions: Bacillus cereus, AH187; BHI medium, 37 °C, 48 h, 200–3 μM; read-out: MIC50 (µM) AH187
[1] = system: B. cereus collagenases released in the NHDF infection model; type: cell-based, B. cereus AH187
ColQ1-CU [2] = biological target: T1, ColQ1-CU (Bacillus cereus, UniProt B9J3S4); assay: biochemical; parameters: species or system B. cereus strain Q1
[3] = system: NHDF cells infected with B. cereus; assay: NHDF infection model, cell morphology/attachment and fibrillar collagen (picrosirius red); type: cell-based, human; conditions: B. cereus infection, 5 h
[4] = system: MDCK II cells infected with B. cereus AH187; type: cell-based, canine
ColA-CU [5] = biological target: T2, ColA-CU (Bacillus cereus, UniProt Q81BJ6); type: biochemical, B. cereus; conditions: rapid dilution
ColG-CU [6] = biological target: T3, ColG-CU (Hathewaya histolytica, UniProt Q9X721); assay: biochemical; type: biochemical, C. histolyticum
ColA-CU [7] = biological target: T2, ColA-CU; assay: biochemical; type: biochemical, B. cereus strain ATCC14579
ColH-PD [8] = biological target: T4, ColH-PD (Hathewaya histolytica, UniProt Q46085); type: biochemical, C. histolyticum
ColH-PD [9] = biological target: T4, ColH-PD; assay: biochemical; type: biochemical, C. histolyticum
ColQ1-CU [10] = biological target: T1, ColQ1-CU; type: biochemical, B. cereus; conditions: rapid dilution
ColG-CU [11] = biological target: T3, ColG-CU; type: biochemical, C. histolyticum; conditions: rapid dilution

T1 sequence (B9J3S4 94-765 limits assumed): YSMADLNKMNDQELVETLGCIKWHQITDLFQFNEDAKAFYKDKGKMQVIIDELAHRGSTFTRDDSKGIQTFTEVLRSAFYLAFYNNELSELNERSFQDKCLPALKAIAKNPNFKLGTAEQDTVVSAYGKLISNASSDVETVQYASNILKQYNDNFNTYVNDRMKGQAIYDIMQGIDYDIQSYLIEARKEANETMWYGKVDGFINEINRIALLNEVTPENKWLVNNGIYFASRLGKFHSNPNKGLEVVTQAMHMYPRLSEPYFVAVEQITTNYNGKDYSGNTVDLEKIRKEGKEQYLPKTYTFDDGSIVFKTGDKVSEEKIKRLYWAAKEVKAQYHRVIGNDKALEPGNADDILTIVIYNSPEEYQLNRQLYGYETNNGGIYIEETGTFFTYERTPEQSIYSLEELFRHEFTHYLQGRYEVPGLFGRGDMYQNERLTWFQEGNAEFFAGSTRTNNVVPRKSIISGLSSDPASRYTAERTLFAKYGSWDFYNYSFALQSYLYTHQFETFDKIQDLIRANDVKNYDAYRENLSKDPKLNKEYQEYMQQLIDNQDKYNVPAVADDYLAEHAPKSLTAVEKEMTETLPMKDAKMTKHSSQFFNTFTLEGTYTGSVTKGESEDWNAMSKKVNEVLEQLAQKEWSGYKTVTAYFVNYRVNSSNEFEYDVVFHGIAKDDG
T4 sequence (Q46085 331-721 limits assumed): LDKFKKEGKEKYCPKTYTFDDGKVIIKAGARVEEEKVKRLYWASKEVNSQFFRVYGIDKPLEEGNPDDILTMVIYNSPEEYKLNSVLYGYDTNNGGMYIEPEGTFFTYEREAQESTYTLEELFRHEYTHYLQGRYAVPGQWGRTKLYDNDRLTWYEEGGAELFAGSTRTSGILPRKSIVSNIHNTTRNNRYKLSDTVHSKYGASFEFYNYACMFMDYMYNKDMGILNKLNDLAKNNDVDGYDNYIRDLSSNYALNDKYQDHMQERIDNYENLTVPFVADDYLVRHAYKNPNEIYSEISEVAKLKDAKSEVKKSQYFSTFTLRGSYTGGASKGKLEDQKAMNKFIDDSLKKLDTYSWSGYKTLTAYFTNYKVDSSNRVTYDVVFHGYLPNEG
T3 sequence (Q9X721 111-786): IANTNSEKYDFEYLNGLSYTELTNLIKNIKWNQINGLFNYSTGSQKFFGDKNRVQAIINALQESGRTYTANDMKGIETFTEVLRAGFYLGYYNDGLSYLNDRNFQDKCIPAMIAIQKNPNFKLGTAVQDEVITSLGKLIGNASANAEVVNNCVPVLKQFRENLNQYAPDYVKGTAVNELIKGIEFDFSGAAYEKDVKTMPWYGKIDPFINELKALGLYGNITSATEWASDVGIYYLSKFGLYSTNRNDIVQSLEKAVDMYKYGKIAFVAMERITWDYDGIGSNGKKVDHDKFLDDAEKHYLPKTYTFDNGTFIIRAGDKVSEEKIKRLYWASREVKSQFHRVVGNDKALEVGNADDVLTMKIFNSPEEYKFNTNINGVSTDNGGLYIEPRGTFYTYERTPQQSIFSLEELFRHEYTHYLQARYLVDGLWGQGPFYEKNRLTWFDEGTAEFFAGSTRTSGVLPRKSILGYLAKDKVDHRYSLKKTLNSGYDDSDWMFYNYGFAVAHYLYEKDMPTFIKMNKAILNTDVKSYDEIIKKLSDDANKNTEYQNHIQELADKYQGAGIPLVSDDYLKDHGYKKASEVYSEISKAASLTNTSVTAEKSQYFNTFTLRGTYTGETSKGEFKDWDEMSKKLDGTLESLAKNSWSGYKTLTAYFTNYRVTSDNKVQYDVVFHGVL
T2 sequence (Q81BJ6 93-764): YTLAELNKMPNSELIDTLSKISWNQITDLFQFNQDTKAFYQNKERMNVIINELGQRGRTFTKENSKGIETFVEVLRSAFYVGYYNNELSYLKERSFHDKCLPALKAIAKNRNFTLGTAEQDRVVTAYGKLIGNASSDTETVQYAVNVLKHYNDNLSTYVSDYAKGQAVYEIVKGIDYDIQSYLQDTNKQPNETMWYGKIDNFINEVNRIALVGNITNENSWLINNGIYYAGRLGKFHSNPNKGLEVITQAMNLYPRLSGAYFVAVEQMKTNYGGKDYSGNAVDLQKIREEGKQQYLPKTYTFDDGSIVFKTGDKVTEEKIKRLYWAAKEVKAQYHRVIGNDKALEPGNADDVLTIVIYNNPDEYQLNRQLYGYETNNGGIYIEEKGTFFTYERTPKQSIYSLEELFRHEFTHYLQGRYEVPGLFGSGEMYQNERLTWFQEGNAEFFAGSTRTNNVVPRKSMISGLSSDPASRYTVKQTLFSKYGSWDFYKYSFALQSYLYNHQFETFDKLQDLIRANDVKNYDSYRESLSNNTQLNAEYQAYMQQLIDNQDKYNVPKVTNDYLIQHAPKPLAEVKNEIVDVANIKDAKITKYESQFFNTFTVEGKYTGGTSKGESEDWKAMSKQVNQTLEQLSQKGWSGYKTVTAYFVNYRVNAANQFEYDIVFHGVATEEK
Chain of ColQ1-FL (B9J3S4 94-965 limits assumed): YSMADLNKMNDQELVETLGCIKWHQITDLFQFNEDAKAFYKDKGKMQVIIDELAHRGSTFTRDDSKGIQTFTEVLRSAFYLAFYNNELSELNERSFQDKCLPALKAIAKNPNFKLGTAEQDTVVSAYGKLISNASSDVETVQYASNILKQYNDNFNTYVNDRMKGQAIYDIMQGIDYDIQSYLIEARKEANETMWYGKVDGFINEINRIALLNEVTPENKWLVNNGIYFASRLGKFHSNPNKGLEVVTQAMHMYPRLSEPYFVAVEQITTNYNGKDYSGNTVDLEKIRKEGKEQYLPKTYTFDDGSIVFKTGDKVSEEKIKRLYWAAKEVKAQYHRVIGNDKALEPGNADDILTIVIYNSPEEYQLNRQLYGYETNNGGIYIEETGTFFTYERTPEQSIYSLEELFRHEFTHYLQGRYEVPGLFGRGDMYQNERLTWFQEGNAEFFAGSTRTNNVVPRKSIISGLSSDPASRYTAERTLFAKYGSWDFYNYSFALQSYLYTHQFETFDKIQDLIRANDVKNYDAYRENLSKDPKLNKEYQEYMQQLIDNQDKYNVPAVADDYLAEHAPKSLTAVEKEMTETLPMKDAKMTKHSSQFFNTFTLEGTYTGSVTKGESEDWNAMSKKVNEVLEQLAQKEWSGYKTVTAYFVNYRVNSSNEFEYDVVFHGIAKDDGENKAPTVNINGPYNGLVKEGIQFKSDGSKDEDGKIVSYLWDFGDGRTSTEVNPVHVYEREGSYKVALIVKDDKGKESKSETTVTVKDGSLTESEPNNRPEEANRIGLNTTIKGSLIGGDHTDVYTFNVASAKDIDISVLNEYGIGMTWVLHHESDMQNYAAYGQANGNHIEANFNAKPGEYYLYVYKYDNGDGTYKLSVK

SMILES | Protection of Col I chains from cleavage by ColQ1-FL (ColQ1-FL) | MIC50 (B. cereus AH187) [µM] | Inhibitory effect on gelatinolytic activity of secreted collagenases [1] | IC50 (ColQ1-CU [2]) [nM] | Effect on cell morphology and ECM collagen content of infected NHDF cells [3] | TEER of infected MDCK II cells [4] | Reversibility of inhibition, ColA-CU (ColA-CU [5]) | Ki (ColG-CU [6]) [µM] | Ki (ColA-CU [7]) [µM] | Reversibility of inhibition, ColH (ColH-PD [8]) | Ki (ColH-PD [9]) [µM] | Ki (ColQ1-CU [2]) [µM] | Reversibility of inhibition, ColQ1-CU (ColQ1-CU [10]) | Reversibility of inhibition, ColG (ColG-CU [11])
O=P(O)(O)c1nc2ccc(Br)cc2nc1P(=O)(O)O [Compound 10, (6-Bromoquinoxaline-2,3-diyl)bis(phosphonic acid)] | showed inhibition only at 12.5 μM | 200 (≈ 73.8 µg/mL) | inhibited the collagenase activity toward gelatin only marginally at 100 μM | 2500 ± 200 | smaller effect at all concentrations tested (except for 10, which resulted in higher cell viability and attachment at 100 μM) | failed to sustain the TEER of the infected cells |  |  |  |  |  |  |  | 
CC(=O)Nc1ccccc1OCc1cn(CCNC(=O)C(Cc2ccccc2)C(=O)NO)nn1 (centres unmarked) [Compound 33, N-[2-[4-[(2-Acetamidophenoxy)methyl]triazol-1-yl]ethyl]-2-benzyl-3-(hydroxyamino)-3-oxo-propanamide] |  |  | no inhibitory effect on the collagenase in the zymography at all tested concentrations; also recorded: no inhibition of the collagenase in the gelatin zymography was detected | 1600 ± 100 | neither able to rescue cell morphology nor able to maintain the collagen content of the ECM |  | rapidly reversible inhibitors | 18.4 ± 0.6 | 4.7 ± 0.3 | rapidly reversible inhibitors | 1.7 ± 0.2 | 0.82 ± 0.07 | rapidly reversible inhibitors | rapidly reversible inhibitors

— PMC9574867, “Discovery and Characterization of Synthesized and FDA-Approved Inhibitors of Clostridial and Bacillary Collagenases” (Journal of Medicinal Chemistry, 2022)
